Data as given in PMC11148772, “Inhibition of protein translational machinery in triple-negative breast cancer as a promising therapeutic strategy” (Cell Reports Medicine, 2024).
Several values for one entry are separate records, joined by “and”; a condition that tells them apart may be missing. Identical values can stand only once. Entries after “also recorded” stand apart in the source; their conditions may differ.

How the values were obtained:
[1] = Pharmacokinetics study; format: in vivo, mouse; settings: 20 mg/kg oral
Experimental: Female C57BL/6J mice of 6–7 weeks were purchased from Jackson Laboratory and housed under standard laboratory conditions. SU056 (20 mg/kg) was given by oral gavage. Blood (200–300 μL) was collected retro-orbitally in EDTA-treated tubes after 15, 30, 60, 120, 240 and 360 min of SU056 administration. Blood plasma collected by centrifugation (7000 rpm; 10 min). The concentration of SU056 in plasma was analyzed using an Agilent 6490 iFunnel triple quadrupole mass spectrometer, coupled with an Agilent 1290 infinity II UHPLC. A ZORBAX C18 analytical column (Eclipse Plus, 2.1 × 50 mm, 1.8 μm particle size) was employed in the study. To create the mobile phase, a solution was prepared with 60% water buffered with 0.1% formic acid and 4mM ammonium formate, along with a solution of 40% acetonitrile buffered with 0.1% formic acid. The mobile phase flow rate was set to 0.4 mL/min and the column temperature was adjusted to 30°C. Positive ion mode was selected for operating the electrospray ionization source. Mass spectrometer parameters were optimized as: source temperature 550°C, nebulizer gas (nitrogen) 20 psi, ion spray (IS) voltage 5000 V, collision energy 21 V. Multiple reaction monitoring (MRM) method was used for the detection of SU056 and an internal standard (IS), 4-(2-hydroxyethyl)-6-methoxy-9-phenyl-4,9-dihydrofuro[3,4-b]quinolin-1(3H)-one, a similar analogue of SU056. […] The calibration curve, created with known concentrations of SU056 and IS, enabled the calculation of unknown concentrations of SU056 in plasma at different time points. A 5 μL plasma was taken from each sample and mixed with a 10 μL of IS solution and 990 μL of MS-grade acetonitrile then vortexed for 30 s followed by a 5 min incubation at RT. The mixture was subjected to centrifugation at 11,000 RPM for 15 min at 4°C, leading to the collection of the supernatant which was further cleaned by re-centrifugation. The concentration of SU056 was determined using the HPLC/MS MRM method with each of the three protein-free plasma fractions.[32]

[2] = Maximum tolerated dose / acute oral toxicity; format: in vivo; design: key to Behavioral, Neurologic and Autonomic signs, Response, all listed signs: 0; no adverse effect; ±1 mild adverse effect; ±2, moderate adverse effect; ±3 severe adverse effect; settings: for Body Weight, Mean / Toxicity (death/test) / Behavioral, Neurologic and Autonomic signs, Response, all listed signs: Female SD rats; for Behavioral, Neurologic and Autonomic signs, Response, all listed signs: observation time 1 hr, 3 animals
Experimental: Female Sprague-Dawley rats (Charles river laboratories, strain code: Crl:CD(SD) 001, 8–10 weeks old) were used by the eurofins lab services (Eurofins Discovery) to test the toxicity of SU056.
The acute oral toxicity of SU056 was evaluated by Eurofins lab services (Eurofins discovery). The oral toxicity study was performed in female rats and mice for multiple escalating doses (100 mg/kg, 200 mg/kg, 400 mg/kg). Rats and mice were monitored for their behavioral, neurological and autonomic signs after administration of SU056. The response was recorded as 0; no adverse effect, ±1 mild adverse effect, ±2, moderate adverse effect and ±3 severe adverse effect.

[3] = test system: normal breast epithelial cells MCF12A; experiment: MTT cell viability assay; format: cell-based; settings: Homo sapiens, MCF-12A, 48 h
Experimental: (§1) MDA-MB-231 (5000 cells per well), MDA-MB-468 (6000 cells per well), SUM159 (3000 cells per well), 4T1 (2000 cells per well), EMT6 (2000 cells per well), E0771 (3000 cells per well), MCF10A (5000 cells per well) and MCF12A (5000 cells per well) cells were seeded in 96-well culture plates. On the next day, cells were treated with either DMSO or indicated concentrations of SU056 for 48 h 3-(4,5-dimethylthiazol-2-yl)-2,5-diphenyltetrazolium bromide (MTT) (0.5 mg/mL) was dissolved in 1x PBS and 50 μL were added to each well and allowed to form formazan crystals (1–2 h) followed by removal of MTT. Formazan crystals were dissolved in DMSO and plates were scanned at 570nm using a Tecan multimode plate reader.
(§2) Data S1. SU056 induces cell cycle arrest and apoptotic cell death, related to Figure 1 A) The growth inhibitory effect of SU056 was evaluated using the MTT assay (0.5 mg/ml in 1x PBS). Normal breast epithelial cells (MCF10A and MCF12A) were plated in a 96 well plate. On the next day, cells were treated with vehicle (DMSO) alone or 0.005-50 μM of […]
(§3) SU056 in fresh medium. […]
(§4) SU056 treatment led to cell cycle arrest at the G2/M phase and induced cell death in TNBC cells. E) MDA-MB-231 and F) MDA-MB-468 cells were analyzed for cell death using Annexin V-FITC Apoptosis Assay kit. Cell lysates were analyzed for Bax and BCL-2 proteins. b-actin was probed to ensure equal protein loading. […]

[4] = test system: normal breast epithelial cells MCF10A; experiment: MTT cell viability assay; format: cell-based; settings: Homo sapiens, MCF-10A, 48 h
Experimental: as §1, §2, §3, §4

[5] = mouse, female C57BL/6J mice, plasma

## O=C1OCC2=C1C(c1cccc(F)c1)c1cc3c(cc1N2CCO)OCO3 (stereo not shown) [SU056, 9-(3-fluorophenyl)-5-(2-hydroxyethyl)-6,9-dihydro-[1,3]dioxolo[4,5-g]furo[3,4-b]quinolin-8(5H)-one]
[1]; mice
  time a cytotoxic concentration remained in the plasma: up to 6 h
[1]; female, C57BL/6J, mouse, plasma, po, 20 mg/kg, female C57BL/6J mice, plasma, read-out: half-life (T1/2)
  half-life: ~60 min
[1]; [5]
  Cmax: 9980 ng/mL and 27 µM
  Tmax: 15 min
[2]; 100 mg/kg, 0 hr
  Body Weight, Mean: 212.7 gm
[2]; 100 mg/kg, 15 min
  Toxicity (death/test): 0/3
[2]; 100 mg/kg, 1 hr
  Toxicity (death/test): 0/3
[2]; 100 mg/kg, 24 hr
  Body Weight, Mean: 216.7 gm
[2]; 100 mg/kg, 24 hrs
  Toxicity (death/test): 0/3
[2]; 100 mg/kg, 48 hr
  Body Weight, Mean: 219.0 gm
[2]; 100 mg/kg, 48 hrs
  Toxicity (death/test): 0/3
[2]; 100 mg/kg, 72 hr
  Body Weight, Mean: 229.7 gm
[2]; 100 mg/kg, 72 hrs
  Toxicity (death/test): 0/3
[2]; 100 mg/kg
  Behavioral, Neurologic and Autonomic signs, Response, all listed signs: 0
[2]; 200 mg/kg, 0 hr
  Body Weight, Mean: 204.3 gm
[2]; 200 mg/kg, 15 min
  Toxicity (death/test): 0/3
[2]; 200 mg/kg, 1 hr
  Toxicity (death/test): 0/3
[2]; 200 mg/kg, 24 hr
  Body Weight, Mean: 208.0 gm
[2]; 200 mg/kg, 24 hrs
  Toxicity (death/test): 0/3
[2]; 200 mg/kg, 48 hr
  Body Weight, Mean: 211.0 gm
[2]; 200 mg/kg, 48 hrs
  Toxicity (death/test): 0/3
[2]; 200 mg/kg, 72 hr
  Body Weight, Mean: 215.0 gm
[2]; 200 mg/kg, 72 hrs
  Toxicity (death/test): 0/3
[2]; 200 mg/kg
  Behavioral, Neurologic and Autonomic signs, Response, all listed signs: 0
[2]; 400 mg/kg, 0 hr
  Body Weight, Mean: 204.0 gm
[2]; 400 mg/kg, 15 min
  Toxicity (death/test): 0/3
[2]; 400 mg/kg, 1 hr
  Toxicity (death/test): 0/3
[2]; 400 mg/kg, 24 hr
  Body Weight, Mean: 200.0 gm
[2]; 400 mg/kg, 24 hrs
  Toxicity (death/test): 0/3
[2]; 400 mg/kg, 48 hr
  Body Weight, Mean: 209.7 gm
[2]; 400 mg/kg, 48 hrs
  Toxicity (death/test): 0/3
[2]; 400 mg/kg, 72 hr
  Body Weight, Mean: 216.7 gm
[2]; 400 mg/kg, 72 hrs
  Toxicity (death/test): 0/3
[2]; 400 mg/kg
  Behavioral, Neurologic and Autonomic signs, Response, all listed signs: 0
[2]; rats, 100, 200, and 400 mg/kg oral gavage, 72 h
  behavioral, neurological, and anatomical signs of toxicity and morbidity: not affected; also recorded: no observable changes
[3]
  IC50: 4.65 ± 2.25 µM
[4]
  IC50: 4.77 ± 1.61 µM
